Source: patent US6057317A, “Heterocyclic compounds” (Adir et Compagnie, priority 1997, dated 2000)

Experiments:
imidazoline I2 receptor = assay: Measurement of in vitro affinity for the I2 receptor (radioligand displacement); format: binding; settings: [3H] idazoxan + 10 μM noradrenaline; renal cortex of rabbit
Description: (§1) The profile of binding to the imidazoline I1 and I2 receptors was determined for the compounds of the invention by evaluating the ability of those compounds to displace specific radioligands of the receptors in question.
(§2) The following Table indicates the radioligand used to label each receptor, the compound and the concentration selected to determine the non-specific fraction, and the tissue selected. […]

SHR rats = assay: Antihypertensive activity in conscious rats; format: in vivo, rat; settings: oral, dose of 15 mg/kg
Description: The tests were carried out in SHR rats. The animals are anaesthetised. A heparinised catheter is introduced into the left carotid artery and connected to a recording apparatus so as to measure the systolic and diastolic arterial pressure and the heart rate. The animals are returned to their cage and the tests are carried out after 24 hours.
The parameters to be measured stabilise during a period of at least 30 minutes, during which a maximum of 1.5 ml of saline solution is injected in such a manner as to optimise the measurements. Only animals whose arterial pressure is higher than or equal to 170 mmHg are included in the study.
The test compounds of the carrier are administered orally and the measurements are carried out before the treatment and every ten minutes after treatment, for 4 hours, and then 8 and 24 hours after treatment.

imidazoline I1 receptor = assay: Measurement of in vitro affinity for the I1 receptor (radioligand displacement); format: binding; settings: [3H] clonidine + 10 μM noradrenaline; bovine lateral reticulated nucleus
Description: as §1, §2
10 μM reticulated nucleus

## Cc1ccc2c(c1)N(C)CC(C1=NCCN1)O2 (stereo not drawn) [Example 2, 2-(4,5-Dihydro-1H-2-imidazolyl)-4,6-dimethyl-3,4-dihydro-2H-1,4-benzoxazineoxalate]
Imidazoline I2 receptor
  Ki: 2 nM
SHR rats
  effect on arterial pressure: allowed the arterial pressure to be normalized
Imidazoline I1 receptor
  Ki: 22 nM
